# Results from patent US9708349B2, “Borates for photoactivated chemical bleaching” (GENERAL ELECTRIC COMPANY, priority 2015, dated 2017).
# Assay: Stability of solid borate on exposure to air (1HNMR)
smiles,measurement,value
"c1ccc(C[B-](c2ccccc2)(c2ccccc2)c2ccccc2)cc1 [MBB, monobenzyltriphenyl borate]",time to evidence of decomposition,< 10 min
